Laboratory results from patent US12421238B2, “Selective dihydropyrrolopyrimidine JAK2 inhibitors” (CHENGDU JINRUI FOUNDATION BIOTECH CO., LTD., priority 2019, dated 2025).
pIC50: −log10 of the molar value.

Tested on: HEL92.1.7
Assay: HEL92.1.7 cell proliferation experiment (Cell Titer-Glo)
Format: cell-based
Details: Homo sapiens, HEL 92.1.7; HEL92.1.7 cells, 72 hours

Structure (SMILES) | IC50
CC(C)(C)NS(=O)(=O)c1cccc(N2CCc3cnc(Nc4ccc(OCCN5CCCC5)cc4)nc32)c1 [Compound I-1] | 0.23 µM
CC(C)(C)NS(=O)(=O)c1cccc(N2CCc3cnc(Nc4ccc(OCCN5CCSCC5)cc4)nc32)c1 [Compound I-14] | 0.43 µM
CN1CCN(CCOc2ccc(Nc3ncc4c(n3)N(c3cccc(S(=O)(=O)NC(C)(C)C)c3)CC4)cc2)CC1 [Compound I-4] | 0.34 µM

Tested on: TF-1
Assay: TF-1 cell proliferation experiment (CellTiter Glo)
Format: cell-based
Details: Homo sapiens; TF-1 cells, 72 hours; read-out: TF-1 (μM), proliferation inhibition

Structure (SMILES) | IC50
CC(C)(C)NS(=O)(=O)c1cccc(N2CCc3cnc(Nc4ccc(OCCN5CCCC5)cc4)nc32)c1 [Compound I-1] | 0.15 µM
CC(C)(C)NS(=O)(=O)c1cccc(N2CCc3cnc(Nc4ccc(OCCN5CCSCC5)cc4)nc32)c1 [Compound I-14] | 0.28 µM
CN1CCN(CCOc2ccc(Nc3ncc4c(n3)N(c3cccc(S(=O)(=O)NC(C)(C)C)c3)CC4)cc2)CC1 [Compound I-4] | 0.18 µM

Tested on: not listed separately
Assay: Pharmacokinetic test in SD rats, intragastric administration
Format: in vivo
Details: rat, po, single intragastric administration, 25 mg/kg, plasma, read-out: Blood concentration Cmax
Method: SD rats were used as the test animals.
Standard curve and preparation and processing of quality control samples:
Stock solution was diluted with 50% acetonitrile/water solution to obtain standard working solutions of 0.04, 0.10, 0.20, 0.40, 1.00, 2.00, 4.00 μg/mL, and quality control working solutions of 0.10, 1.00, 3.00 μg/mL. 2.50 μL of standard curve working solutions and quality control working solutions were added to 47.5 μL of blank rat plasma, respectively, to obtain standard curve solutions having analyte concentrations of 2.00, 5.00, 10.00, 20.00, 50.00, 100.00, 200.00 ng/mL and quality control samples having concentrations of 5.00, 50.00, and 150.00 ng/mL. 200 μL of acetonitrile (containing 5 ng/mL of the internal standard loratadine) was added. After vortexing for 3 minutes, the solutions were centrifuged at 15000 rpm at 4° C. for 15 minutes. 100 μL of the supernatant was taken for LC-MS/MS analysis. WinNonlin® 8.0 was used to calculate the experimental results.

Structure (SMILES) | Cmax
CC(C)(C)NS(=O)(=O)c1cccc(N2CCc3cnc(Nc4ccc(OCCN5CCCC5)cc4)nc32)c1 [Compound I-1] | 998 ng/mL
CC(C)(C)NS(=O)(=O)c1cccc(N2CCc3cnc(Nc4ccc(OCCN5CCSCC5)cc4)nc32)c1 [Compound I-14] | 1230 ng/mL
CN1CCN(CCOc2ccc(Nc3ncc4c(n3)N(c3cccc(S(=O)(=O)NC(C)(C)C)c3)CC4)cc2)CC1 [Compound I-4] | 1100 ng/mL

Same assay, conditions: rat, po, single intragastric administration, 25 mg/kg, plasma, read-out: Curve area AUClast

Structure (SMILES) | AUC(0-t)
CC(C)(C)NS(=O)(=O)c1cccc(N2CCc3cnc(Nc4ccc(OCCN5CCCC5)cc4)nc32)c1 [Compound I-1] | 798 ng·h/mL
CC(C)(C)NS(=O)(=O)c1cccc(N2CCc3cnc(Nc4ccc(OCCN5CCSCC5)cc4)nc32)c1 [Compound I-14] | 900 ng·h/mL
CN1CCN(CCOc2ccc(Nc3ncc4c(n3)N(c3cccc(S(=O)(=O)NC(C)(C)C)c3)CC4)cc2)CC1 [Compound I-4] | 807 ng·h/mL

Same assay, conditions: rat, po, single intragastric administration, 25 mg/kg, plasma, read-out: Half life t1/2 (converted)

Structure (SMILES) | half-life
CC(C)(C)NS(=O)(=O)c1cccc(N2CCc3cnc(Nc4ccc(OCCN5CCCC5)cc4)nc32)c1 [Compound I-1] | 5.8 h
CC(C)(C)NS(=O)(=O)c1cccc(N2CCc3cnc(Nc4ccc(OCCN5CCSCC5)cc4)nc32)c1 [Compound I-14] | 6.9 h
CN1CCN(CCOc2ccc(Nc3ncc4c(n3)N(c3cccc(S(=O)(=O)NC(C)(C)C)c3)CC4)cc2)CC1 [Compound I-4] | 6.2 h

Same assay, conditions: rat, po, single intragastric administration, 25 mg/kg, plasma, read-out: Time to peak Tmax

Structure (SMILES) | Tmax
CC(C)(C)NS(=O)(=O)c1cccc(N2CCc3cnc(Nc4ccc(OCCN5CCCC5)cc4)nc32)c1 [Compound I-1] | 1 h
CC(C)(C)NS(=O)(=O)c1cccc(N2CCc3cnc(Nc4ccc(OCCN5CCSCC5)cc4)nc32)c1 [Compound I-14] | 1.5 h
CN1CCN(CCOc2ccc(Nc3ncc4c(n3)N(c3cccc(S(=O)(=O)NC(C)(C)C)c3)CC4)cc2)CC1 [Compound I-4] | 1.5 h

Tested on: not listed separately
Assay: Acute toxicity test, single oral administration to ICR mice (MTD)
Format: in vivo
Details: ICR, mouse, in vivo, po, read-out: MTD (maximum tolerated dose)

Structure (SMILES) | MTD at 6 days
CC(C)(C)NS(=O)(=O)c1cccc(N2CCc3cnc(Nc4ccc(OCCN5CCCC5)cc4)nc32)c1 [Compound I-1] | > 2000 mg/kg
CN1CCN(CCOc2ccc(Nc3ncc4c(n3)N(c3cccc(S(=O)(=O)NC(C)(C)C)c3)CC4)cc2)CC1 [Compound I-4] | ≥ 1000 mg/kg

Tested on: ICR mice
Assay: as above
Format: in vivo
Details: not given

Structure (SMILES) | MTD (maximum tolerated dose)
CN1CCN(CCOc2ccc(Nc3ncc4c(n3)N(c3cccc(S(=O)(=O)NC(C)(C)C)c3)CC4)cc2)CC1 [Compound I-4] | 1000 mg/kg

Biological target: JAK1 (Homo sapiens, UniProt P23458)
Assay: Kinase activity test on JAK1 (Caliper EZ Reader conversion rate)
Details: not given

Chain of JAK1 (P23458 whole entry): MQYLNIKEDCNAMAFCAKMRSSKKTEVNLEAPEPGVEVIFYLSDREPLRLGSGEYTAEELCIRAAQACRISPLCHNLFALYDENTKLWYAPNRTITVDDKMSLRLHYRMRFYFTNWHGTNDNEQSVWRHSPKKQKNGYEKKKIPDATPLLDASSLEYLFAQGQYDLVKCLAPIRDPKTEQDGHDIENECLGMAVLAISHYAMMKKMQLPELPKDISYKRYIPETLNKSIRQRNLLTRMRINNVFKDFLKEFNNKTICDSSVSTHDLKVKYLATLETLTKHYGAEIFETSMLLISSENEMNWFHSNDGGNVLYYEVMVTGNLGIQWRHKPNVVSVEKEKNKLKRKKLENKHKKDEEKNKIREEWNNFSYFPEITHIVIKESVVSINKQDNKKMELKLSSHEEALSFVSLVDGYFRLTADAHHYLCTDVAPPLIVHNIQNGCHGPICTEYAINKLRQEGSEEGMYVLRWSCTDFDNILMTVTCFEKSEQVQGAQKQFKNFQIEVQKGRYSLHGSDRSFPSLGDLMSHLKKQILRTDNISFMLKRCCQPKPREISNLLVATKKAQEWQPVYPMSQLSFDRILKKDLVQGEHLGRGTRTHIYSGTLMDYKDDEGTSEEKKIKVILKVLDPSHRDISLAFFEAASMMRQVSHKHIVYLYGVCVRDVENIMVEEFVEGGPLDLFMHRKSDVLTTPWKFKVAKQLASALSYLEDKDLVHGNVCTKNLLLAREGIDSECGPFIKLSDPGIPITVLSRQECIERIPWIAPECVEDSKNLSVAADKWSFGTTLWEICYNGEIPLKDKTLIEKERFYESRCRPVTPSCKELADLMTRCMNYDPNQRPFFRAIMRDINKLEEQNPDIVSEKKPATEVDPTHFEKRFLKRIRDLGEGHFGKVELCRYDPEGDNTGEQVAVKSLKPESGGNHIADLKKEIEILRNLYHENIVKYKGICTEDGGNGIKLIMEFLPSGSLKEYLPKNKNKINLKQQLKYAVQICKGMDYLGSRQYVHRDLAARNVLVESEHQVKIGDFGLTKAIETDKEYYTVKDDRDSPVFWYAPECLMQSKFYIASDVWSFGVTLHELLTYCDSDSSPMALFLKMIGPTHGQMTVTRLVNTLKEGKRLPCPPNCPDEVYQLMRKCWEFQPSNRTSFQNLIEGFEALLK

Structure (SMILES) | pIC50
CC(C)(C)NS(=O)(=O)c1cccc(N2CCc3cnc(Nc4ccc(OCCN5CCCC5)cc4)nc32)c1 [Compound I-1] | 6.68
CC(C)(C)NS(=O)(=O)c1cccc(N2CCc3cnc(Nc4ccc(OCCN5CCSCC5)cc4)nc32)c1 [Compound I-14] | 6.99
CN1CCN(CCOc2ccc(Nc3ncc4c(n3)N(c3cccc(S(=O)(=O)NC(C)(C)C)c3)CC4)cc2)CC1 [Compound I-4] | 6.98

Biological target: JAK2 (Homo sapiens, UniProt O60674)
Assay: Kinase activity test on JAK2 (Caliper EZ Reader conversion rate)
Details: not given

Chain of JAK2 (O60674 whole entry): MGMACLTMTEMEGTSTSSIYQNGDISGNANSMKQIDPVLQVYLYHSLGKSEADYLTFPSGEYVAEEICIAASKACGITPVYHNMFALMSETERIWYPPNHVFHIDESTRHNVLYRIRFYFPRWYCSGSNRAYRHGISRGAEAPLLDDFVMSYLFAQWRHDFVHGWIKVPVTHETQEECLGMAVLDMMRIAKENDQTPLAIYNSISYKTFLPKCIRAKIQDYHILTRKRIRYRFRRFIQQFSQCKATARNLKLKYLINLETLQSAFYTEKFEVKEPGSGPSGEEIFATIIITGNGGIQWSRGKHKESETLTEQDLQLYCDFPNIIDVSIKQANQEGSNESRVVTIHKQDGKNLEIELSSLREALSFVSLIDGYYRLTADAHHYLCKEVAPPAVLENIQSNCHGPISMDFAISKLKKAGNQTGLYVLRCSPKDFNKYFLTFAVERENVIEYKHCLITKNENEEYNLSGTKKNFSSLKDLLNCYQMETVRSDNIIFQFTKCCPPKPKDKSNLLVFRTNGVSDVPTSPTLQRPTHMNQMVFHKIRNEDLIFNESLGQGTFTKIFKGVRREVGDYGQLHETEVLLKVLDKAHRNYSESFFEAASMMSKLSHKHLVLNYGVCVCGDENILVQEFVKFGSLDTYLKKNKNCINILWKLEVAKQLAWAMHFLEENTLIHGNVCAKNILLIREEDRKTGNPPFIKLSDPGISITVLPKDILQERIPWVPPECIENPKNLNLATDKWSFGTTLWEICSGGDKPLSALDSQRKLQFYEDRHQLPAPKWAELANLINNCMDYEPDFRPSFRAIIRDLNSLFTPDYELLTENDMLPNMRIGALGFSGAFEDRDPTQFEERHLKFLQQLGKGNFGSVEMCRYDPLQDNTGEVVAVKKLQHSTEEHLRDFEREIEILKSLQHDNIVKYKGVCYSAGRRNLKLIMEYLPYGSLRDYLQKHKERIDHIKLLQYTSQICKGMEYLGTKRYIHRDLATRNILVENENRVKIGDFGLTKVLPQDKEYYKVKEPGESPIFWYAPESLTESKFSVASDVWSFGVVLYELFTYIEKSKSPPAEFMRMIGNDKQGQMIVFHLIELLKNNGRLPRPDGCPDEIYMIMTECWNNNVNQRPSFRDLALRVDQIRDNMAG

Structure (SMILES) | pIC50
CC(C)(C)NS(=O)(=O)c1cccc(N2CCc3cnc(Nc4ccc(OCCN5CCCC5)cc4)nc32)c1 [Compound I-1] | 8.60
CC(C)(C)NS(=O)(=O)c1cccc(N2CCc3cnc(Nc4ccc(OCCN5CCSCC5)cc4)nc32)c1 [Compound I-14] | 8.96
CN1CCN(CCOc2ccc(Nc3ncc4c(n3)N(c3cccc(S(=O)(=O)NC(C)(C)C)c3)CC4)cc2)CC1 [Compound I-4] | 8.92

Same assay, conditions: ratio of IC50 values, selectivity for JAK2 over JAK1

Structure (SMILES) | JAK1/JAK2
CC(C)(C)NS(=O)(=O)c1cccc(N2CCc3cnc(Nc4ccc(OCCN5CCCC5)cc4)nc32)c1 [Compound I-1] | 84
CC(C)(C)NS(=O)(=O)c1cccc(N2CCc3cnc(Nc4ccc(OCCN5CCSCC5)cc4)nc32)c1 [Compound I-14] | 93
CN1CCN(CCOc2ccc(Nc3ncc4c(n3)N(c3cccc(S(=O)(=O)NC(C)(C)C)c3)CC4)cc2)CC1 [Compound I-4] | 87

Same assay, conditions: ratio of IC50 values, selectivity for JAK2 over JAK3

Structure (SMILES) | JAK3/JAK2
CC(C)(C)NS(=O)(=O)c1cccc(N2CCc3cnc(Nc4ccc(OCCN5CCCC5)cc4)nc32)c1 [Compound I-1] | 504
CC(C)(C)NS(=O)(=O)c1cccc(N2CCc3cnc(Nc4ccc(OCCN5CCSCC5)cc4)nc32)c1 [Compound I-14] | 907
CN1CCN(CCOc2ccc(Nc3ncc4c(n3)N(c3cccc(S(=O)(=O)NC(C)(C)C)c3)CC4)cc2)CC1 [Compound I-4] | 850

Biological target: T1, JAK3 (Homo sapiens, UniProt P52333)
T1 sequence (P52333 1-1124): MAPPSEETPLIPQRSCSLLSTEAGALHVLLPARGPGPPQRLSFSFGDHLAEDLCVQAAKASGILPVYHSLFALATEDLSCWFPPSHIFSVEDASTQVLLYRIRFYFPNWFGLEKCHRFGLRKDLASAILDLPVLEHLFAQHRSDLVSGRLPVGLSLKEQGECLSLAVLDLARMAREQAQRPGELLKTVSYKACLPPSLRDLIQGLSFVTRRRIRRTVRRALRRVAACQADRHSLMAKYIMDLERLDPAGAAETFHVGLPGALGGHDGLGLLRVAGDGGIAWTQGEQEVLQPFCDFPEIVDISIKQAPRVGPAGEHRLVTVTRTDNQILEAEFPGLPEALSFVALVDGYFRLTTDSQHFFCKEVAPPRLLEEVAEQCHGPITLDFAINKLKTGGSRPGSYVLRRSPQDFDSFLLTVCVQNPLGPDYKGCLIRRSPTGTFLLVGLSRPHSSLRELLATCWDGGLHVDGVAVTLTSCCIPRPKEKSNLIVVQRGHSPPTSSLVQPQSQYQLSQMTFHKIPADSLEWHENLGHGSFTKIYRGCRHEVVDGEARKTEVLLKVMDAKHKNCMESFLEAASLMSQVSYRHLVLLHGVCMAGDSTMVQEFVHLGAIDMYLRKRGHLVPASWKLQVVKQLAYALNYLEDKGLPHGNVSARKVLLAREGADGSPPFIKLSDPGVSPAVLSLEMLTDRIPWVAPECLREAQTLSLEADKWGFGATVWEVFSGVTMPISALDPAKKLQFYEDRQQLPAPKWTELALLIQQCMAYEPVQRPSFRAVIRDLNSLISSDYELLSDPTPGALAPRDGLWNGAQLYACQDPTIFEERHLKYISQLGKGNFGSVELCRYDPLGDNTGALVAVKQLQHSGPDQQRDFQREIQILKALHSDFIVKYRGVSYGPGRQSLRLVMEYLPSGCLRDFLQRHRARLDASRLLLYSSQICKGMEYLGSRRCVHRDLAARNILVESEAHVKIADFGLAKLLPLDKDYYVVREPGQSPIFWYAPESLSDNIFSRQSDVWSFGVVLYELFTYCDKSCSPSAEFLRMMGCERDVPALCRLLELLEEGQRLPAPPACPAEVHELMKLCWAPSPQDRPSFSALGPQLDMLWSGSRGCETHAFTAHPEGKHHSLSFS
Assay: Kinase activity test on JAK3 (Caliper EZ Reader conversion rate)
Details: not given

Structure (SMILES) | pIC50
CC(C)(C)NS(=O)(=O)c1cccc(N2CCc3cnc(Nc4ccc(OCCN5CCCC5)cc4)nc32)c1 [Compound I-1] | 5.90
CC(C)(C)NS(=O)(=O)c1cccc(N2CCc3cnc(Nc4ccc(OCCN5CCSCC5)cc4)nc32)c1 [Compound I-14] | 6.00
CN1CCN(CCOc2ccc(Nc3ncc4c(n3)N(c3cccc(S(=O)(=O)NC(C)(C)C)c3)CC4)cc2)CC1 [Compound I-4] | 5.99
